Measurements from ChEMBL document CHEMBL3507680, “University of Dundee, Gates Library screen for HepG2 cell viability”.

Assay: Human HepG2 cell viability assay in 384 well format
Format: toxicity, cell-based
Set-up: dose 125 nL, time 70.5 hour; concentration not given beside the values
Conditions: HepG2 cells, read-out: Inhibition

SMILES | cytotoxicity at 70.5 h [%]
OCCN(Cc1nc(-c2ccc3c(c2)OCO3)no1)Cc1cccs1 | -16.8
Cc1c(CN2CCCCC2)c(O)n(CCCO)c(=O)c1C#N | -4.27
COCCN(CCOC)Cc1c(C)nc2ccccc2c1O | 5.31
CC(C)c1nnc(CN2CCCC3(CC2)CN(C)C(=O)O3)o1 (stereo not drawn) | -3.73
Cc1nc(N2CCC3(CCCN(CC4CC4)C3=O)C2)c2sccc2n1 (stereo not drawn) | 0.2
Cc1cc(C)nc(CN(C)C(=O)c2cccc(CCC(C)(C)O)c2)c1 | -4.1
O=C(CCNCc1cc(O)c2cc(F)ccc2n1)N1CCCC1 | -8.32
CN(C)C(C(=O)NC1(CO)CCCC1)c1ccc(F)cc1 (stereo not drawn) | 6.65
CCCOc1ccccc1CCCNc1ncnc2oc(C)nc12 | -7.16
CCCNC(=O)N1CCc2ccc(S(=O)(=O)N3CCCC3)cc2C1 | -10.1
CNc1nc2c(c(C(=O)N3CCCC3)n1)CN(C(=O)CCSC)CC2 | -1.55
CSCc1noc(-c2ccc(C)c(N3CCNC3=O)c2)n1 | -9.43
Cn1cnnc1C1CCCN(Cc2nc(Cc3ccccc3)no2)C1 (stereo not drawn) | 13
CN(C)C(=O)c1nc(CN2CC(c3ccccc3)CC2=O)no1 (stereo not drawn) | 10.4
Cc1cc(CC(C)NC2CCN(CC(C)C)CC2)[nH]n1 (stereo not drawn) | -10.6
N[C@@H]1CC[C@H](C(=O)NCCn2cc(Cl)cn2)C1 | 3.97
COc1cccc2c1OCC(C(=O)NCc1ncc3c(n1)CCC3)C2 (stereo not drawn) | -9.1
CCc1nnc(CN(CC)C(=O)C2CC(=O)N(Cc3cccnc3)C2)o1 (stereo not drawn) | -11.4
COc1ccc(NC2(C(=O)N3CCCn4cncc4C3)CCCC2)cc1 | -13
CN(C)CCO[C@H]1C[C@@H](O)C12CCN(c1nccc3ccccc13)CC2 | -10.3
Cc1nn(C)cc1-c1ccnc(NCCN)n1 | -8.28
Cc1nc[nH]c1CN1CCN(C(=O)C2(C)CC2)[C@H]2CS(=O)(=O)C[C@H]21 | -11.5
Cc1ccc(F)c(C(=O)N2C[C@@H](C(=O)O)[C@H](c3ccncc3)C2)c1Cl | -8.75

SMILES | cytotoxicity at 70.5 h [%]
COc1cccc(-c2noc(-c3ccc(NCC(C)O)nc3)n2)c1OC (stereo not drawn) | -0.152
O=C(O)COc1ccc(Cl)cc1CN1CCC2(CCNCC2)CC1 | -11.2
COc1ncccc1-c1nc(-c2ccccn2)nn1C1CCS(=O)(=O)C1 (stereo not drawn) | -7.2
Cc1nccnc1-n1c(COCC(=O)O)nc2c(C)cccc21 | -1.07
COCc1noc(CN2C[C@H](NS(C)(=O)=O)[C@@H](C3CC3)C2)n1 | -11
Cc1nc(C)c(C(=O)N2CCCC(C(=O)c3nccn3C)C2)s1 (stereo not drawn) | -2.4
COCCC1CN(Cc2cn(CCC(N)=O)c3ccccc23)CCO1 (stereo not drawn) | -5.24
CN1CC(c2ccccc2)CC12CCN(C(=O)c1ccc(Cl)cc1)CC2 (stereo not drawn) | 7.42
CN1CC2(CCN(c3ncnc4c3CCNC4)CC2)OC1=O | -9.3
CCC(C)N(Cc1ccncc1)Cc1ccc(-n2cccn2)cc1 (stereo not drawn) | -5.94
Cc1cc(C(=O)NC2CCCc3c2cnn3-c2cccc(C)c2C)[nH]n1 (stereo not drawn) | -3.11
CCn1c(N)nc2cc(C(=O)N(C)Cc3cc(C(C)(C)C)n[nH]3)cnc21 | -5.41
CCN(CC)S(=O)(=O)N1CCCC(c2nccn2Cc2ccncc2)C1 (stereo not drawn) | 8.67
Cc1cc2c(=O)n(CCSc3ncn[nH]3)cnc2s1 | -7.44
COc1ccccc1S(=O)(=O)N1CCC2(CC1)OCCCC2O (stereo not drawn) | -6.84
COC(=O)N1CCN(c2ncnc3nc(C)cc(C)c23)CC1 | -4.12
CCN1CCC(N2CCN(C)C3(CCC(=O)N(CCOC)CC3)C2)CC1 (stereo not drawn) | -9.42
CN(Cc1cccc(C(=O)Nc2ccnn2C)c1)CC1(C)COC1 | 0.785
CN1CCC(Cc2noc(-c3cccc4c3OCC4)n2)CC1 | -8.69
Cc1[nH]c2c(C)ccc(C)c2c1CC(=O)NCCNc1cccnc1 | 27
CNc1nc(C)cc(NC2CCCN(C3Cc4ccccc4C3)C2)n1 (stereo not drawn) | 14.9
Clc1cc(N2CCN(C3CCOCC3)CC2)nc2[nH]ccc12 | -0.399
CC(C)c1cc(N2CCC(NS(C)(=O)=O)CC2)n2nccc2n1 | -2.38

SMILES | cytotoxicity at 70.5 h [%]
Cc1cc(N2CCC3(CCC(=O)N(CCCO)C3)CC2)nc(N(C)C)n1 | -2.5
COCc1nc(CN2CC(C)(c3ccccc3)CCC2=O)no1 (stereo not drawn) | -6.99
COc1ccc(C(C)C)cc1C1CC(=O)NCc2nc(N(C)C)sc21 (stereo not drawn) | 13.4
CCN(C)C[C@@H]1CN(Cc2cccc(O)c2)C[C@@H]1CO | -11.8
c1cc2c(cc1CN1CCC(Cc3noc(C4CC4)n3)CC1)OCCO2 | 20.2
Fc1cnccc1CN1CCC2(CCNCC2)C1 | -10.4
Cc1cnn(CC(=O)N2CCC3(CCC(=O)N(CCCO)C3)CC2)c1 | 0.675
CC(C)=CCN1C[C@H]2CC[C@@H]1CN(C(=O)c1ccc3[nH]cnc3c1)C2 | 3.14
CN(C)CCCN(C)c1nccc(N2CCN[C@H]3CS(=O)(=O)C[C@H]32)n1 | 23.2
CCOC(=O)CC1CCCCN1C(=O)c1cc(C)on1 (stereo not drawn) | -8.65
CCc1nc(C)c(C(=O)N[C@@H]2c3ccccc3C[C@@H]2O)o1 | 16
Nc1nc2c(c(N3CCCC(CN4CCCC4=O)C3)n1)CCNCC2 (stereo not drawn) | -5.58
CC(C)(O)CCc1cccc(C(=O)N[C@H](C(N)=O)c2ccccc2)c1 | -11
CC(=O)N[C@@H]1CN(Cc2ccc(F)cc2F)C[C@H]1c1ccc(C)o1 | 11.7
O=c1cc(-c2cccnc2)nc(-c2ccc(CN3CC[C@@H](O)C3)cc2)[nH]1 | 12.1
CCS(=O)(=O)c1ncc(CN(C)Cc2ccccc2OC)n1CCOC | -5.74
CN(CCNc1ncc2c(n1)CCN2c1ccccc1)S(C)(=O)=O | -9.7
Cc1cnccc1N1CCCN(Cc2ccc(-c3cc[nH]n3)o2)CC1 | -5.27
CC(C)N1CCC2(CCCN(Cc3ccc(F)cc3)C2=O)C1 (stereo not drawn) | 27.4
Cc1cc(CC(C)NC(=O)COc2ccc(F)cc2F)[nH]n1 (stereo not drawn) | -5.3
O=C(O)c1cc(-c2cn[nH]c2)cc(S(=O)(=O)N2CCSCC2)c1 | -4.23
Cc1nc(C)c(C)c(NCCSc2ccccn2)n1 | -6.54
CCCN1CCN(Cc2cc3cc(OCC)ccc3[nH]c2=O)CC1 | -6.17

SMILES | cytotoxicity at 70.5 h [%]
Cc1ccc(-c2ccnc(N3CCC4(CC3)CNC(=O)O4)n2)c(C)n1 | -9.43
Cc1nc(N2C[C@@H](CN3CCCCC3)[C@@H](CO)C2)c2sccc2n1 | 8.31
CS(=O)(=O)N[C@H]1CN(CCOCc2ccccc2)C[C@@H]1C1CC1 | -2.16
O=C(c1cc[nH]n1)N1CCc2ccc(S(=O)(=O)N3CCOCC3)cc2C1 | 3.21
Cc1cc(C)c2c(N(C)CC3CCN(CC(C)C)C3)ncnc2n1 (stereo not drawn) | -2.13
O=C(Nc1ccccc1Cl)N1CCN(CC2CC2)[C@@H]2CS(=O)(=O)C[C@@H]21 | 16.8
CCC1CN(C(=O)c2ccccc2N2CCCC2)CCN1C(C)C (stereo not drawn) | -4.31
Cc1cc(N2CCN(Cc3ccc(-c4cc[nH]n4)o3)CC2)cc(C)n1 | 19.1
COc1ccc(F)cc1C(C(=O)O)N1CCSCC1 (stereo not drawn) | -7.69
Cc1ccc([C@@H]2CN(S(=O)(=O)C(C)C)C[C@H]2N(C)C)cc1 | -12.5
Cc1cccc(CN2CCN(Cc3ccccc3)CC(O)C2)n1 (stereo not drawn) | -12.1
Cc1cnc(N2CCCC3(CCCN(C)C3)C2)nc1 (stereo not drawn) | -0.385
Cc1cc(C)c2nc(CN3CCCC(c4cc[nH]n4)C3)cc(O)c2c1 (stereo not drawn) | -2.87
Cc1[nH]c(=O)[nH]c(=O)c1CN1CCCC(CCc2ccccc2)C1 (stereo not drawn) | -5.9
O=C(c1cc(=O)[nH]c(=O)[nH]1)N1CCCCC1c1nc2cc(F)ccc2[nH]1 (stereo not drawn) | -6.77
CCn1ccnc1CN1CCCC(CO)(Cc2cccc(Cl)c2)C1 (stereo not drawn) | -1.73
CCC1CN(C(=O)c2ccc(=O)[nH]c2)CCC(=O)N1Cc1ccccc1 (stereo not drawn) | -2.4
N#CCCSc1sc2c(O)cc(O)nc2c1C#N | 13.6
Cc1cc(C)n(NC(=O)c2ccccc2F)c(=O)c1 | 15.6
Cc1cc(C)n(NC(=O)c2ccc(Cl)cc2Cl)c(=O)c1 | -16.4
CCC(NC(=O)c1nn(C)cc1C(=O)O)c1ccc(C)cc1C (stereo not drawn) | -6.11
CCCSc1ncc(Cl)c(C(=O)NC(CCSC)C(=O)O)n1 (stereo not drawn) | -7.81
Cc1cc(NCC2CCCO2)cc(=O)n1C (stereo not drawn) | -9.63

SMILES | cytotoxicity at 70.5 h [%]
N#CCCn1nc(C(F)(F)F)c2c1CCC2 | -2.44
NCCCn1nc(C(F)(F)F)c2c1CCC2 | -7.21
Cn1cc(N)c(-c2nnc3n2CCCC3)n1 | -0.222
CC(C)c1cc(COCCCC(=O)O)no1 | -2.63
CCCn1cc2c(C(F)F)cc(SCC(=O)O)nc2n1 | -8.88
Cn1nccc1CNC(=O)Cn1nc(C(F)(F)F)cc1C1CC1 | -10.5
CC1=C(C#N)C(=O)NC(=O)/C1=C\c1c(C)nn(-c2ccccc2)c1O | -2.78
Cc1c(Br)cc2c(c1C)OCC(N(C)C)C2=O (stereo not drawn) | 19.9
CCN(CC)C1COc2c(cc(Br)c(C)c2C)C1=O (stereo not drawn) | -6.45
COc1ccc(N(c2ccc(OC)cc2)c2ccc(C(=O)O)s2)cc1 | -3.85
COc1ccc(-c2nonc2N)cc1 | -0.886
O=C1NC(=O)c2c3c(nc(O)c21)CCCC3 | 0.775
CCn1nccc1C(=O)NC(Cn1cccn1)C(C)(C)C (stereo not drawn) | 2.9
O=C1CCC(=O)N1c1nn(Cc2ccc(F)cc2)cc1Cl | 18.7
CNCc1cc(F)ccc1Oc1ccc(F)cc1F | -0.802
CCn1cc(-c2cc(C(F)F)n3nc(CC(=O)O)nc3n2)cn1 | 0.375
NC(=O)CSc1nccc(-c2ccc3c(c2)OCO3)n1 | -2.27
NC1C=C(C(F)(F)F)NC=C1c1ccc(Cl)cc1 (stereo not drawn) | 3.46
Cn1cc(-c2cc(C(F)F)n3nc(CCC(=O)O)nc3n2)cn1 | -4.35
Cc1cn(Cc2ccccc2)nc1N | 2.81
Cc1cccc(Cn2cc(C)c(N)n2)c1 | -1.64
